Two substances from patent US20260216229A1, “PROGRAMMABLE DNA PROTEOLYSIS TARGET CHIMERAS AND METHODS OF THEIR USE” (ARIZONA BOARD OF REGENTS ON BEHALF OF ARIZONA STATE …, priority 2023, published 2026) can be followed below.

What all share (format): cell-based
One data set addresses T1, CDK4 (Homo sapiens, UniProt P11802).
T1 construct: Dose- and Time-dependent Degradation of CDK6 and CDK4 in U251 Cells; endogenous in cells; host or cells: U-251 MG (U251) glioblastoma cells
In words: Western blot of CDK4 degradation in U251 cells transfected with DNA-PROTACs. In general terms: A western blot detects proteins with antibodies after separation by electrophoresis.

Data set [1] concerns the target T2, CDK6 (Homo sapiens, UniProt Q00534).
T2 construct: Western blot analysis of CDK6 degradation in U251 cells treated with distance-based DNA-PROTACs; endogenous in cells; host or cells: U-251 MG (U251) glioblastoma cells
Nature of the data set: Western blot of CDK6 degradation in U251 cells transfected with DNA-PROTACs. Here is the method: U-251 MG Glioblastoma Cell Line was grown in Dulbecco's Modified Eagles Medium (DMEM) containing 10% heat inactivated fetal bovine serum (FBS), streptomycin (5 μg/mL) and 5 U/mL penicillin 95 U/mL). All cell lines were maintained, and cell culture experiments were carried out in humidified incubators at 37° C. and 5% CO2 supplementation.
One day prior to DNA-PROTACs transfection, cells were propagated into 6 cm cell culture dishes containing appropriate complete growth medium. Prior to transfection, complete medium was replaced with transfection medium (5% FBS, no Penstrep). DNA-PROTACs transfection was performed using lipofectamine 3000 reagent according to the protocols provided by the manufacture. All transfections were carried out in 6-cm dishes with 3 mL of media and concentrations of DNA-PROTACs were calculated according to this volume (3 mL). Briefly, for 50 nM concentration, 5 μL from a 30 µM DNA-PROTACs stock and 12 μL p3000 reagent was added to a tube containing 125 μL of OPTIM-MEM and 8 μL of Lipofectamine 3000 reagent was added to a separate tube containing 125 μL of OPTIM-MEM. Two tubes were incubated for 5 minutes at room temperature and DNA-PROTACs containing OPTI-MEM was then slowly added to the second tube with lipo3000. The solution in the tube was mixed well by pipetting up and down several times. After incubating for 15-20 minutes at room temperature, 250 μL of DNA-PROTACs-lipofectamine complex was added drop wise onto cells containing the transfection medium. Transfection medium was mixed well before transferring the plate into the incubator. After appropriate time, cells were either harvested or replaced with fresh medium and incubated for desired time point prior to harvesting. For proteasome inhibition assay, 5 μM of MG-132 was incubated with cells for 2 h prior to transfection of DNA-PROTACs. Then, cells were incubated for another 12 h before lysing cells. Cell lysates were prepared by incubating cells in RIPA lysis buffer (25 mM Tris pH 7.6, 150 mM NaCl, 1% NP40, 1% deoxycholate, 0.1% SDS, 1× protease inhibitor cocktail from Roche and 1 mM of PMSF) on ice for 30 minutes and cell lysate was clarified by centrifugation at high speed (15 000 rpm) for 15 minutes. Clear supernatant was collected for further experiments.
Protein concentration in all the cell lysates were measured by BCA protein assay kit and equal amounts from each lysate were mixed with 4×loading dye and boiled for 5 minutes followed by 2 minutes centrifugation prior to loading into SDS-PAGE gel. Next proteins on the SDS-PAGE gel were transferred to a Nitrocellulose membrane by western blotting and the membrane was blocked with 5% milk in TBST (0.05% Tween 20) for 1 h. Primary antibodies (all Abcam antibodies were diluted 1:5000) were prepared in TBST with 2.5% milk and membranes were incubated overnight at 4° C. On the following day, membrane was washes for 15 minutes (Incubate for three times, 5 minutes each) and appropriate secondary antibodies (1:5000) were prepared in TBST and incubated with the membrane for 1 h at room temperature (RT). Membrane was washed for 15 minutes with TBST (incubate for three times, […]) prior to imaging.
The degradation efficiency of various DNA-PROTACs was evaluated through their transfection into U251 cells, conducted simultaneously to ensure uniform experimental conditions. A double-stranded DNA sequence without any ligand was utilized as a negative control, providing a baseline for comparison. Following a 14-hour treatment period, a duration selected based on preliminary time-course studies, the cells were harvested using trypsin digestion. The lysates obtained were then subjected to SDS-PAGE, followed by Western blot analysis to assess protein degradation. […] This finding highlights the efficacy of DNA-PROTAC V02 in targeting and reducing CDK6 protein levels. In comparison, DNA-PROTAC Versions 03 and 04 also facilitated protein degradation, albeit with varying degrees of efficiency. […]

The next data set relates to CDK4 mRNA. In words: RT-PCR of CDK4 mRNA expression in U251 cells. The note with it: 100 nM, 6 hours. The procedure:
(§1) Subsequent RNA isolation and RT-PCR detection enabled a quantitative assessment of CDK6 and CDK4 mRNA expression levels. […] To further corroborate the mechanistic intricacies of DNA-PROTAC-V02, we probed its interaction with the proteasome pathway. […] Following an 8-hour treatment period, cells were collected, and Western blot analysis was conducted.

In data set [2] the target is T2, CDK6. Nature of the data set: Proteasome inhibition (MG132) assay of CDK6 degradation in U251 cells. The conditions noted are these: 8-hour treatment. Here is the method: One day prior to DNA-PROTACs transfection, cells were propagated into 6 cm cell culture dishes containing appropriate complete growth medium. Prior to transfection, complete medium was replaced with transfection medium (5% FBS, no Penstrep). DNA-PROTACs transfection was performed using lipofectamine 3000 reagent according to the protocols provided by the manufacture. All transfections were carried out in 6-cm dishes with 3 mL of media and concentrations of DNA-PROTACs were calculated according to this volume (3 mL). Briefly, for 50 nM concentration, 5 μL from a 30 µM DNA-PROTACs stock and 12 μL p3000 reagent was added to a tube containing 125 μL of OPTIM-MEM and 8 μL of Lipofectamine 3000 reagent was added to a separate tube containing 125 μL of OPTIM-MEM. Two tubes were incubated for 5 minutes at room temperature and DNA-PROTACs containing OPTI-MEM was then slowly added to the second tube with lipo3000. The solution in the tube was mixed well by pipetting up and down several times. […]
Protein concentration in all the cell lysates were measured by BCA protein assay kit and equal amounts from each lysate were mixed with 4×loading dye and boiled for 5 minutes followed by 2 minutes centrifugation prior to loading into SDS-PAGE gel. […]
Subsequent RNA isolation and RT-PCR detection enabled a quantitative assessment of CDK6 and CDK4 mRNA expression levels. […]

The next data set has as its system CDK6 mRNA. Nature of the data set: RT-PCR of CDK6 mRNA expression in U251 cells. The note with it: 100 nM, 6 hours. Here is the method: as §1
For data set [3], the target named is T2, CDK6. In words: Immunofluorescence staining / confocal analysis of CDK6 in U251 cells. The note with it: 20 nM and 100 nM, compared to controls dsDNA, dsDNA-CDK6-i, dsDNA-E3-i. Here is the method:
U-251 MG cells were seeded into 10 mm confocal dishes (Ibidi) and incubated overnight. Subsequently, cells were quickly washed thrice with ice-cold PBS and then fixed with 4% paraformaldehyde for 20 min. After fixation, cells were washed with PBS and permeabilized with 0.1% Triton X-100 at room temperature for 10 min. The samples were then incubated in a blocking solution for 1 h at room temperature, followed by incubation with primary antibody overnight at 4° C. The primary antibody used was mouse CDK6 antibody (Abacm, 1:100). After washing thrice with PBST (PBS with 0.1% Tween 20), the samples were incubated with the secondary antibody in the dark for 1.5 h at room temperature. Cells were washed 3 times in PBST for 5 minutes each then incubated in the appropriate secondary antibodies supplemented CoraLite488-conjugated Goat Anti-Rabbit IgG(H+L) (Proteintech, 1:100) for 3 hrs. The nucleus was counterstained with DAPI (Hoechst 3342, 1 ug/mL) for 20 mins followed by 3 times wash in PBST. Finally, the slides were Imaging by Nikon X confocal.

T2 sequence (Q00534 whole entry): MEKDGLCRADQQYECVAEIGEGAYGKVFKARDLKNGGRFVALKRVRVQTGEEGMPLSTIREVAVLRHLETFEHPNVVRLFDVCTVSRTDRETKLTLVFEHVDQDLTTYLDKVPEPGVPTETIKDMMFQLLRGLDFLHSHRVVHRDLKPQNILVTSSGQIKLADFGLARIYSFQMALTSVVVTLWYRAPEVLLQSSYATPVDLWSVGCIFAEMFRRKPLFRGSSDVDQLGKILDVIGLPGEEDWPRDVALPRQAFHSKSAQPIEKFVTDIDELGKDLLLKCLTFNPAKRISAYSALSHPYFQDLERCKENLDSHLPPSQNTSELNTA
T1 sequence (P11802 whole entry): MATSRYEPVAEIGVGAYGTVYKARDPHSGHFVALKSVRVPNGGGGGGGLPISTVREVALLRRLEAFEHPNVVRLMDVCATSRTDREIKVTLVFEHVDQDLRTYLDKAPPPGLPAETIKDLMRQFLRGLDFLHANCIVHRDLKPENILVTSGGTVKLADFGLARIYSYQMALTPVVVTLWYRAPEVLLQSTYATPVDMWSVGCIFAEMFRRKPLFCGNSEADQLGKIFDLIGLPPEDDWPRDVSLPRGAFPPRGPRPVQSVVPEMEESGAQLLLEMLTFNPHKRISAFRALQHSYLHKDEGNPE

Take “DNA-E3 ligand: control: dsDNA with E3 ligand only (chain 1 CTCCATCTATTCTACGCCA; chain 2 TTCTACGCCA; chain 1: DNA, linkages s2 o13 s3 (s phosphorothioate, o phosphodiester), methylation of C not given here; chain 2: DNA, linkages o6 s3 (s phosphorothioate, o phosphodiester), methylation of C not given here; further chemistry not fully specified) [reference compound]”: the “CDK4 protein degradation (target selectivity, controls)” value with CDK4 was “did not induce notable protein degradation”. In the data set with CDK6 [1], the “CDK6 protein degradation (target selectivity, controls)” value was “did not induce notable protein degradation”.
For the substance “DNA-PROTAC-V02: DNA duplex of E3-i (pomalidomide) strand SEQ ID NO 3 and POI-i (palbociclib) strand SEQ ID NO 4 (chain 1 ACTCCATCTANTTCTACGCCA; chain 2 TGGCGTAGAANTAGATGGAGT; pomalidomide and palbociclib conjugated; modified_base 1 OTHER; Nucleotide with phosphorothioate linkage; modified_base 2 OTHER; modified_base 3 OTHER; misc_difference 11 E3 ligase attached to 3-Dimethoxytrityloxy-2-(3-(fluorenylmethoxycarbonylamino)propanamido)propyl-1-O-(2-cyanoethyl)-(N,N-diisopropyl)-phosphoramidite modified adenosine, cytidine, thymi; m)”, the “CDK4 mRNA levels (RT-PCR)” value in the data set on CDK4 mRNA is reported as “does not elicit a decrease in mRNA levels”. The “CDK6 protein (Western blot) without MG132 treatment” value in the data set with CDK6 [2] (50 nM, no MG132) was “reduction in CDK6 protein”. Moreover, the “CDK6 protein (Western blot) with MG132 pre-treatment” value in the data set with CDK6 [2] (MG132 pre-treatment 1 hour, then 50 nM) is given as “rescue of CDK6 proteins”. Further, in the data set on CDK6 mRNA, the “CDK6 mRNA levels (RT-PCR)” value is “does not elicit a decrease in mRNA levels”. Further, the CDK6 degradation result with CDK6 [1] (50 nM) is given as “over 80%”. Also, the “time for which CDK6 degradation was sustained” value in the data set with CDK6 [1] (50 nM, time course) was “up to 48 hours”. Further, in the data set with CDK6 [1] (14-hour treatment, 50 nM and 100 nM, vs ligand-free dsDNA control), the “CDK6 protein degradation (Western blot)” value is “most pronounced degradation of CDK6”. In the data set with CDK6 [1] (14 hours, angular series), the “concentration at which significant CDK6 degradation begins” value was 20 nM. The “concentration at which dose-dependent degradation of CDK6 commences” value with CDK6 [1] (dose series) was 10 nM. Further, in the data set with CDK6 [3], the “intracellular green fluorescence (CDK6 immunofluorescence)” value is recorded as “weakened intracellular green fluorescence”.
